Measured values: ChEMBL document CHEMBL3045835, “Comparative study of conventional and microwave-assisted synthesis of some Schiff bases and their potential as antimicrobial agents” (2012)
Converted amounts (≈) assume the structure as drawn.

Assays:
Type in all cases: functional
Micrococcus luteus [1] = experiment: Antibacterial activity against Micrococcus luteus MTCC 1538 at 1000 ug/ml after 18 hr by cup-plate method; conditions: MTCC 1538, 18 h, read-out: DIZ
Penicillium chrysogenum = experiment: Antifungal activity against Penicillium chrysogenum MTCC 161 at 1000 ug/ml after 18 hr by cup-plate method; conditions: MTCC 161, 18 h, read-out: DIZ
Bacillus pumilus [2] = experiment: Antibacterial activity against Bacillus pumilus MTCC 1456 at 1000 ug/ml after 18 hr by cup-plate method; conditions: MTCC 1456, 18 h, read-out: DIZ
Aspergillus niger [3] = experiment: Antifungal activity against Aspergillus niger MTCC 2546 at 100 ug/ml after 18 hr by cup-plate method; conditions: MTCC 2546, 18 h, read-out: DIZ
Escherichia coli [4] = experiment: Antibacterial activity against Escherichia coli MTCC 1573 at 1000 ug/ml after 18 hr by cup-plate method; conditions: MTCC 1573, 18 h, read-out: DIZ
Aspergillus niger [5] = experiment: Antifungal activity against Aspergillus niger MTCC 2546 at 500 ug/ml after 18 hr by cup-plate method; conditions: MTCC 2546, 18 h, read-out: DIZ
Pseudomonas aeruginosa [6] = experiment: Antibacterial activity against Pseudomonas aeruginosa MTCC 424 at 100 ug/ml after 18 hr by cup-plate method; conditions: MTCC 424, 18 h, read-out: DIZ
Staphylococcus aureus [7] = experiment: Antibacterial activity against Staphylococcus aureus MTCC 1430 at 1000 ug/ml after 18 hr by cup-plate method; conditions: MTCC 1430, 18 h, read-out: DIZ
Bacillus pumilus [8] = experiment: Antibacterial activity against Bacillus pumilus MTCC 1456 after 24 hr by broth dilution method; conditions: MTCC 1456, 24 h
Pseudomonas fluorescens [9] = experiment: Antibacterial activity against Pseudomonas fluorescens MTCC 2421 at 100 ug/ml after 18 hr by cup-plate method; conditions: MTCC 2421, 18 h, read-out: DIZ
Bacillus pumilus [10] = experiment: Antibacterial activity against Bacillus pumilus MTCC 1456 at 1500 ug/ml after 18 hr by cup-plate method; conditions: MTCC 1456, 18 h, read-out: DIZ
Aspergillus niger [11] = experiment: Antifungal activity against Aspergillus niger MTCC 2546 at 200 ug/ml after 18 hr by cup-plate method; conditions: MTCC 2546, 18 h, read-out: DIZ
Staphylococcus aureus [12] = experiment: Antibacterial activity against Staphylococcus aureus MTCC 1430 after 24 hr by broth dilution method; conditions: MTCC 1430, 24 h
Escherichia coli [13] = experiment: Antibacterial activity against Escherichia coli MTCC 1573 at 500 ug/ml after 18 hr by cup-plate method; conditions: MTCC 1573, 18 h, read-out: DIZ
Pseudomonas aeruginosa [14] = experiment: Antibacterial activity against Pseudomonas aeruginosa MTCC 424 at 500 ug/ml after 18 hr by cup-plate method; conditions: MTCC 424, 18 h, read-out: DIZ
Bacillus pumilus [15] = experiment: Antibacterial activity against Bacillus pumilus MTCC 1456 at 500 ug/ml after 18 hr by cup-plate method; conditions: MTCC 1456, 18 h, read-out: DIZ
Staphylococcus aureus [16] = experiment: Antibacterial activity against Staphylococcus aureus MTCC 1430 at 500 ug/ml after 18 hr by cup-plate method; conditions: MTCC 1430, 18 h, read-out: DIZ
Pseudomonas aeruginosa [17] = experiment: Antibacterial activity against Pseudomonas aeruginosa MTCC 424 at 1500 ug/ml after 18 hr by cup-plate method; conditions: MTCC 424, 18 h, read-out: DIZ
Bacillus subtilis = experiment: Antibacterial activity against Bacillus subtilis MTCC 441 at 200 ug/ml after 18 hr by cup plate method; conditions: MTCC 441, 18 h, read-out: DIZ
Micrococcus luteus [18] = experiment: Antibacterial activity against Micrococcus luteus MTCC 1538 at 200 ug/ml after 18 hr by cup-plate method; conditions: MTCC 1538, 18 h, read-out: DIZ
Pseudomonas fluorescens [19] = experiment: Antibacterial activity against Pseudomonas fluorescens MTCC 2421 at 200 ug/ml after 18 hr by cup-plate method; conditions: MTCC 2421, 18 h, read-out: DIZ
Micrococcus luteus [20] = experiment: Antibacterial activity against Micrococcus luteus MTCC 1538 at 500 ug/ml after 18 hr by cup-plate method; conditions: MTCC 1538, 18 h, read-out: DIZ
Micrococcus luteus [21] = experiment: Antibacterial activity against Micrococcus luteus MTCC 1538 at 1500 ug/ml after 18 hr by cup-plate method; conditions: MTCC 1538, 18 h, read-out: DIZ
Pseudomonas aeruginosa [22] = experiment: Antibacterial activity against Pseudomonas aeruginosa MTCC 424 after 24 hr by broth dilution method; conditions: MTCC 424, 24 h
Escherichia coli [23] = experiment: Antibacterial activity against Escherichia coli MTCC 1573 at 100 ug/ml after 18 hr by cup-plate method; conditions: MTCC 1573, 18 h, read-out: DIZ
Escherichia coli [24] = experiment: Antibacterial activity against Escherichia coli MTCC 1573 after 24 hr by broth dilution method; conditions: MTCC 1573, 24 h
Aspergillus niger [25] = experiment: Antifungal activity against Aspergillus niger MTCC 2546 after 24 hr by broth dilution method; conditions: MTCC 2546, 24 h

## Cc1cccnc1/N=C/c1cccc2ccccc12
Micrococcus luteus [1]
  zone of inhibition at 1000 µg/mL: 24 mm
Penicillium chrysogenum
  zone of inhibition at 1000 µg/mL: 17 mm
Bacillus pumilus [2]
  zone of inhibition at 1000 µg/mL: 19 mm
Aspergillus niger [3]
  zone of inhibition at 100 µg/mL: 13 mm
Escherichia coli [4]
  zone of inhibition at 1000 µg/mL: 16 mm
Aspergillus niger [5]
  zone of inhibition at 500 µg/mL: 19 mm
Pseudomonas aeruginosa [6]
  zone of inhibition at 100 µg/mL: 12 mm
Staphylococcus aureus [7]
  zone of inhibition at 1000 µg/mL: 18 mm
Bacillus pumilus [8]
  MIC: 200 µg/mL (≈ 812 µM)
Pseudomonas fluorescens [9]
  zone of inhibition at 100 µg/mL: 17 mm
Bacillus pumilus [10]
  zone of inhibition at 1500 µg/mL: 20 mm
Aspergillus niger [11]
  zone of inhibition at 200 µg/mL: 16 mm
Staphylococcus aureus [12]
  MIC: 400 µg/mL (≈ 1620 µM)
Escherichia coli [13]
  zone of inhibition at 500 µg/mL: 15 mm
Pseudomonas aeruginosa [14]
  zone of inhibition at 500 µg/mL: 14 mm
Bacillus pumilus [15]
  zone of inhibition at 500 µg/mL: 18 mm
Staphylococcus aureus [16]
  zone of inhibition at 500 µg/mL: 15 mm
Pseudomonas aeruginosa [17]
  zone of inhibition at 1500 µg/mL: 18 mm
Bacillus subtilis
  zone of inhibition at 200 µg/mL: 13 mm
Micrococcus luteus [18]
  zone of inhibition at 200 µg/mL: 18 mm
Pseudomonas fluorescens [19]
  zone of inhibition at 200 µg/mL: 20 mm
Micrococcus luteus [20]
  zone of inhibition at 500 µg/mL: 22 mm
Micrococcus luteus [21]
  zone of inhibition at 1500 µg/mL: 26 mm
Pseudomonas aeruginosa [22]
  MIC: 300 µg/mL (≈ 1220 µM)
Escherichia coli [23]
  zone of inhibition at 100 µg/mL: 13 mm
Escherichia coli [24]
  MIC: 200 µg/mL (≈ 812 µM)
Aspergillus niger [25]
  MIC: 200 µg/mL (≈ 812 µM)
